Data on 14 compounds can be found in patent publication US5714471A, “Peptide and peptide analog protease inhibitors” (SIBIA Neurosciences, Inc., priority 1995, dated 1998).

Non-standard residues stand in square brackets, D forms with d. Residues, ends and D or L forms follow the SMILES beside them. ξ: configuration not given here. *: point of attachment. Chg = N[CH](C(=O)O)C1CCCCC1; Nle = CCCC[CH](N)C(=O)O; Cbz = O=C(OCc1ccccc1)*; ξNle = CCCCC(N)C(=O)O; CHN2 = [N-]=[N+]=C*

The test system of the first experiment is Aβ formation in HGB 717/Swed cells. Description: Immunoblot assay for Aβ peptide (inhibition of Aβ formation). The class given is cell-based, human. The conditions noted are these: concentration of 10 μM, overnight incubation, conditioned medium, relative to DMSO control. The text has this:
Human glioblastoma cells (ATCC Accession No. HTB16) were stably transfected with a DNA expression vector encoding a 695 amino acid isoform variant of the amyloid precursor protein (APP) containing the familial Swedish double mutations at codons 670 and 671 (K to N and M to L, respectively; see Mullan et al. (1992) Nature Genet. 1:345-347) and an additional mutation at codon 717 (V to F; see Murrell et al. (1991) Science 254:97-99) to produce cells designated HGB 717/Swed. High levels of Aβ are detectable in the conditioned medium isolated from HGb 717/Swed cultured cells. The medium also contains larger secreted fragments, α-sAPP695, which are alternatively processed APP fragments whose generation precludes Aβ formation.
HGB 717/Swed cells were grown at 37° C. under a 5% carbon dioxide atmosphere in Dulbecco's modified eagle medium (DMEM; Gibco) supplemented with 10% heat-inactivated fetal calf serum, 0.45% glucose, 2 mM L-glutamine, 100 units/ml penicillin, and 100 μg/ml streptomycin sulfate (Gemini Bioproducts). Approximately 1×10^6 cells were incubated overnight in 5 ml of DMEM containing varying μM final concentrations of desired test compounds or a DMSO control. Conditioned medium was collected, and unwanted cells and debris were removed by sedimentation at 3,000 rpm at 4° C.
Aβ peptides were isolated from the medium by immunoaffinity purification using an Aβ-specific antibody. To reduce the interaction of non-specific binding of unrelated proteins, such as serum proteins, to the antibody, the medium was pre-treated with rabbit antisera and Protein A Sepharose (Pharmacia) for 4 hours at 4° C. The sepharose-bound material was removed by centrifugation at 3,000 rpm at 4° C. for 10 min, and Aβ peptides were immunoaffinity purified from the clarified medium by incubation overnight with an affinity purified polyclonal rabbit antibody (referred to as 2939) prepared against a synthetic Aβ peptide corresponding to amino acids 1 to 28. Protein A-conjugated sepharose was added to immobilize the Aβ-antibody complexes, and the resin was pelleted by centrifugation at 3,000 rpm at 4° C. for 10 min. The Aβ -antibody complexes were eluted from the matrix by denaturing the complex by boiling in the presence of SDS.
Equal portions of each sample were loaded on 16% Tricine gels (Novex), and subjected to electrophoresis. Resolved proteins were transferred from the gel to Hybond nitrocellulose (Amersham, Arlington Heights, Ill.) by electroblotting, and incubated with the commercially available monoclonal antibody 6E10 (obtained from Drs. Kim and Wisniewski, Institute for Basic Research, New York, see, published International PCT application WO 90/12871), which specifically recognizes Aβ residues 1 to 17. Specifically bound antibody was detected using a biotinylated goat anti-mouse IgG secondary antibody (Sigma), followed by the addition of streptavidin conjugated to horseradish preoxidase (Amersham, Arlington Heights, Ill.), and documented by luminescent detection (Amersham). Levels of Aβ peptides were determined by laser densitometry of visualized films. A positive result in the assay is a decrease in the formation of the 4-kDa Aβ peptides relative to the DMSO control.
In general terms: Immunoblotting shows a protein as a band on a membrane.
In the case of `CC(=O)N[C@@H](CC(C)C)C(=O)N[C@@H](CC(C)C)C(=O)NC(C=O)CC1CCCCC1` (mixture of isomers) [Ac--L--L--Cha--(H), N-Ac-L-Leu-L-Leu-DL-cyclohexylalaninal], the “% INHIBITION OF Aβ” value was found to be 46%.
For `C=C(C)CC(C=O)NC(=O)[C@H](Cc1ccccc1)NC(=O)[C@H](CC(C)C)NC(=O)OCc1ccccc1` (mixture of isomers) [Cbz--L--F--Lene--(H), (2SR)-N-Cbz-L-Leu-L-Phe-N-[2-(4-methyl-4-pentenal)]amide], the “% INHIBITION OF Aβ” value amounted to 69%.
Turning to `C=C(C)CC(C=O)NC(=O)[C@H](CC(C)C)NC(=O)[C@H](CC(C)C)NC(=O)OCc1ccccc1` (mixture of isomers) [Cbz--L--L--Lene--(H), (2SR)-N-Cbz-L-Leu-L-Leu N-[2-(4-methyl-4-pentenal)]amide], the “% INHIBITION OF Aβ” value came to 95%.

The same experiment, now with this note: concentration of 40 μM, overnight incubation, conditioned medium, relative to DMSO control.
For the compound `C=C(C)CC(C=O)NC(=O)[C@H](CC(C)C)NC(=O)[C@H](CC(C)C)OCc1ccccc1` (mixture of isomers) [2S--benzoxyvaleric--L--Lene--(H), (2SR)-N-[(2S)-2-benzoxy-4-methylpentanoyl]-L-Leu N-[2-(4-methyl-4-pentenal)]amide], the “% INHIBITION OF Aβ” value stood at 85%.
Consider `CC(C)C[C@H](NC(=O)OCc1ccccc1)C(=O)N[C@@H](Cc1ccccc1)C(=O)NC(C=O)CC1CCCCC1` (mixture of isomers) [Cbz--L--F--Cha--(H), (2SR)-N-Cbz-L-Leu-L-Phe-DL-cyclohexylalaninal], for which the “% INHIBITION OF Aβ” value is recorded as 100%.
With `CCCCC(C=O)NC(=O)[C@H](CC(C)C)N(C)C(=O)[C@H](CC(C)C)NC(=O)OCc1ccccc1` (mixture of isomers) [Cbz--L--[CH3]--L--Nl--(H), N-Cbz-L-Leu-L-(methyl)Leu-DL-norleucinal], the “% INHIBITION OF Aβ” value is reported as 77%.
Take `CCCCC(C=O)NC(=O)C(CC(C)C)NC(=O)C1CCCN1C(=O)OCc1ccccc1` [Cbz--P--L--Nl--(H), N-Cbz-L-Pro-L-Leu-L-norleucinal] (Cbz-Pro-Leu-[Nle]-aldehyde; configuration not given here): the “% INHIBITION OF Aβ” value is given as 80%.
As for “N-Cbz-L-Leu-L-Leu-DL-(methyl)norleucinal [Cbz--L--L--[CH3]--Nl--(H)]”, the “% INHIBITION OF Aβ” value came out at 97%.

Staying with this experiment, now noted: concentration of 50 μM, overnight incubation, conditioned medium, relative to DMSO control.
For `CCCCC(C=O)NC(=O)[C@H](CC(C)C)NC(=O)[C@H](CC(C)C)NC(=O)OCC1c2ccccc2-c2ccccc21` (mixture of isomers) [Fmoc--L--L--Nl--(H), N-Fmoc-L-Leu-L-Leu-DL-norleucinal], the “% INHIBITION OF Aβ” value was found to be 89%.

Still in this experiment, the particulars now being: concentration of 75 μM, overnight incubation, conditioned medium, relative to DMSO control.
As to `CCCCC(NC(=O)[C@H](CC(C)C)NC(=O)[C@H](CC(C)C)NC(C)=O)C(=O)C(F)(F)F` (mixture of isomers) [Ac--L--L--Nl--(TFMK), (3SR)-N-Ac-L-Leu-L-Leu N-[3-(1,1,1-trifluoro-2-oxo-heptyl)]amide], the “% INHIBITION OF Aβ” value turned out to be 50%.
`CC=CCC(C=O)NC(=O)[C@H](CC(C)C)NC(=O)[C@H](CC(C)C)NC(C)=O` (mixture of isomers) [Ac--L--L--Nlene--(H), (2SR)-N-Ac-L-Leu-L-Leu N [2-(trans-4-hexenal)]amide]: the “% INHIBITION OF Aβ” value amounted to 96%.
Turning to `CC(=O)NC(CC(C)C)C(=O)NC(CC(C)C)C(=O)NC(C=O)C1CCCCC1` [Ac--L--L--Chg--(H)] (Ac-Leu-Leu-[Chg]-aldehyde; configuration not given here), the “% INHIBITION OF Aβ” value was 99%.
With `CCCCC(C#N)NC(=O)[C@H](CC(C)C)NC(=O)[C@H](CC(C)C)NC(C)=O` (stereo partly drawn) [Ac--L--L--Nl--(CN), (2S)-N-Ac-L-Leu-L-Leu N-[2-(hexanenitrile)]amide], the “% INHIBITION OF Aβ” value was 94%.
Consider `CCCCC(NC(=O)[C@H](CC(C)C)NC(=O)[C@H](CC(C)C)NC(C)=O)C(=O)C=[N+]=[N-]` (stereo partly drawn) [Ac--L--L--Nl--(DM), N-Ac-L-Leu-L-Leu-L-Nle-COCHN2] (Ac-Leu-Leu-[ξNle]-CHN2), for which the “% INHIBITION OF Aβ” value is listed as 87%.
